In ChEMBL document CHEMBL1136657, “Novel ether derivatives of mannopeptimycin glycopeptide antibiotic” (2003):
Converted amounts (≈) assume the structure as drawn.

Experiments:
Assay type in all cases: functional
[1] = test system: Enterococcus sp.; test: Minimum inhibitory concentration against Enterococcus species. was determined
[2] = test system: Streptococcus; test: Minimum inhibitory concentration against Streptococcus species. was determined
[3] = test system: Staphylococcus aureus; test: Minimum inhibitory concentration against Staphylococcus aureus was determined

SMILES | MIC [1] [µg/mL] | MIC [2] [µg/mL] | MIC [3] [µg/mL]
CC(C)CC(=O)O[C@@H]1[C@@H](O[C@H]2[C@H](O)[C@H](O)[C@@H](Oc3ccc(C[C@H]4NC(=O)[C@H]([C@@H](C)c5ccccc5)NC(=O)CNC(=O)[C@H](CO)NC(=O)[C@@H]([C@@H](O)[C@@H]5CN=C(N)N5[C@H]5O[C@H](O)[C@@H](O)[C@H](O)[C@@H]5O)NC(=O)[C@H]([C@@H](O)[C@@H]5CN=C(N)N5)NC4=O)cc3)O[C@@H]2CO)O[C@H](CO)[C@@H](O)[C@@H]1O | > 128 | 8 (≈ 5.86 µM) | 8 (≈ 5.86 µM)
C[C@@H](c1ccccc1)[C@@H]1NC(=O)CNC(=O)[C@H](CO)NC(=O)[C@@H]([C@@H](O)[C@@H]2CN=C(N)N2[C@H]2O[C@H](O)[C@@H](O)[C@H](O)[C@@H]2O)NC(=O)[C@H]([C@@H](O)[C@@H]2CN=C(N)N2)NC(=O)[C@@H](Cc2ccc(O[C@H]3O[C@H](CO)[C@@H](O[C@H]4O[C@H](CO)[C@@H](O)[C@H](O)[C@@H]4O)[C@H](O)[C@@H]3O)cc2)NC1=O | 128 (≈ 99.9 µM) | 32 (≈ 25 µM) | > 128
CC(C)CC(=O)O[C@H]1[C@H](O)[C@H](O)[C@@H](O[C@H]2[C@H](O)[C@H](O)[C@@H](Oc3ccc(C[C@H]4NC(=O)[C@H]([C@@H](C)c5ccccc5)NC(=O)CNC(=O)[C@H](CO)NC(=O)[C@@H]([C@@H](O)[C@@H]5CN=C(N)N5[C@H]5O[C@H](O)[C@@H](O)[C@H](O)[C@@H]5O)NC(=O)[C@H]([C@@H](O)[C@@H]5CN=C(N)N5)NC4=O)cc3)O[C@@H]2CO)O[C@@H]1CO | 4 (≈ 2.93 µM) | 2 (≈ 1.46 µM) | 4 (≈ 2.93 µM)
CC(C)CC(=O)O[C@@H]1[C@H](O)[C@@H](O[C@H]2[C@H](O)[C@H](O)[C@@H](Oc3ccc(C[C@H]4NC(=O)[C@H]([C@@H](C)c5ccccc5)NC(=O)CNC(=O)[C@H](CO)NC(=O)[C@@H]([C@@H](O)[C@@H]5CN=C(N)N5[C@H]5O[C@H](O)[C@@H](O)[C@H](O)[C@@H]5O)NC(=O)[C@H]([C@@H](O)[C@@H]5CN=C(N)N5)NC4=O)cc3)O[C@@H]2CO)O[C@H](CO)[C@H]1O | 64 (≈ 46.9 µM) | 8 (≈ 5.86 µM) | 8 (≈ 5.86 µM)
